Reference: patent US20190282600A1, “COMBINATION THERAPIES TARGETING TERT DEPENDENCY FOR CANCER THERAPY” (The Wistar Institute of Anatomy and Biology, priority 2018, published 2019)

What was measured:
[1] = tested on: NRAS mutant melanoma cells; assay: Reactive oxygen species by flow cytometry (H2DCFDA, MitoSox Red); type: cell-based, Human; details: 1 μM 6-thio-dG for 7 days
Method: FIGS. 2a to 2c show NRAS^mut melanoma cells (FIG. 2a), BRAF-V600E/NRAS mutant cells derived from melanoma patients resistant to BRAF/MEK inhibitors (FIG. 2b), or non-transformed melanocytes and fibroblasts (FIG. 2c) were treated with 6-thio-dG for 7 days. Cell viability was measured by Alamar Blue assay and calculated relative to DMSO-treated cells. […] Cell death was assessed by PSVUe staining. Percent of apoptotic cells is shown. […] Mean TRF length expressed as kilobase pairs is indicated at the bottom. […] FIG. 2g provides a bar graph showing that DNA damage was assessed by γH2AX staining. […] Tumor volume was measured and average tumor volume (n=4) ±SEM was plotted vs. time.
FIGS. 3a to 3g provides graphs showing that telomere dysfunction enhances oxidative stress leading to upregulation of an antioxidant program. […] Mitochondrial superoxide production was measured by MitoSox Red fluorescence (FIGS. 3c, and 3d) and expressed as fluorescence relative to vector or DMSO controls. […] Transduced M93-047 cells were treated with DMSO or 1 μM of 6-thio-dG and cell death was assessed by Annexin V/PI straining. […] Transduced cells were treated with increasing doses (1, 2.5 and 5 μM) of 6-thio-dG for 7 days and cell death was assessed. […]
General or mitochondrial specific ROS were measured by flow cytometry H2DCFDA or MitoSoxRed (Invitrogen, Waltham, Mass.) following manufacturer's specifications.

KRAS mutant A549 cells = assay: Cell death by Annexin V/PI flow cytometry; type: cell-based; details: 1 μM 6-thio-dG, 5 μM Gam
Method: (§1) FIGS. 5a to 5e provide bar graphs showing that combination treatment with 6-Thio-dG and Gamitrinib (Gam) triggers death selectively in NRAS mutant tumor cells. NRAS-WT/BRAF-WT melanoma cells (FIG. 5a), NRAS-WT/BRAF-mut melanoma cells (FIG. 5b), NRAS mutant neuroblastoma cells (FIG. 5c), NRAS-WT/KRAS-mutant colon cancer cells (FIG. 5d), and NRAS-WT/KRAS-mutant lung cancer cells were treated with 1 μM 6-thio-dG for 5 days (FIG. 5e). At day 5, culture medium was replaced and cells treated with 1 μM 6-thio-dG plus 5 μM Gam for two more days. Cells were stained with Annexin V and PI and percent cell death was determined by FACS. Data represent average of three independent experiments +/−SEM; p values were calculated using un-paired Student's t-test; *p<0.05; **p<0.001.
(§2) Cells were seeded in 96-well plates and treated with drugs. After 6 days, cell viability was assessed following 6h incubation with […] Alamar Blue (ThermoFisherScientific, Philadelphia, Pa.) by measuring fluorescence using an EnVision Xcite Multilabel plate reader (Perkin Elmer, Waltham, Mass.). Cell death was determined by flow cytometry using PSVue-643 (Molecular Targeting Technologies) or Annexin V (640919, Biolegend, San Diego, Calif.) and Propidium Iodide (Sigma) staining. Samples were analyzed using a BD LSRII flow cytometer (BD Biosciences, San Jose, Calif.).

KRAS mutant HCT116 cells = assay: Cell death by Annexin V/PI flow cytometry; type: cell-based; details: 1 μM 6-thio-dG, 5 μM Gam
Method: as §1, §2

[2] = tested on: NRAS mutant SKNAS neuroblastoma cells; assay: Cell death by Annexin V/PI flow cytometry; type: cell-based; details: 1 μM 6-thio-dG, 5 μM Gam, single agents or in combination
Method: as §1, §2

For Nc1nc2c(ncn2[C@H]2C[C@H](O)[C@@H](CO)O2)c(=S)[nH]1 [6-thio-dG, 6-thio-2′-deoxyguanosine], the “ROS levels (H2DCFDA)” value [1] was “increased levels”, the “mitochondrial ROS levels (MitoSox Red)” value [1] was “increased mitochondrial ROS levels” and the cell death (KRAS mutant A549 cells) was “did not induce substantial death”. For the same compound, the cell death (KRAS mutant HCT116 cells) was “did not induce substantial death” and the cell death [2] was “triggered significant death”.
